In US20240299505A1, “COMPOSITION FOR IMPROVING, PREVENTING OR TREATING INFLAMMATORY BOWEL DISEASE COMPRISING NAMPT-DERIVED PEPTIDE AS ACTIVE INGREDIENT” (Industry-University Cooperation Foundation Hanyang …, priority 2023, published 2024):

Assays:
[1] = test system: NLRP3 inflammasome signal 1; assay: NLRP3 inflammasome signal 1 in LPS-treated BMDMs (IB, FACS ROS, cytokine ELISA); assay type: cell-based, mice; conditions: for production of cytokines (NF-κB-induced): ELISA of supernatants; for generation of ROS: FACS
Description: (§1) FIG. 4 confirms that NAMPT-derived peptides inhibit activation of signal 1 and 2 of NLRP3. Specifically, (A-C) BMDMs were stimulated with LPS for 4 hours and pretreated with rNAMPT for 1 hour (A, B) or 18 hours (C). (A) WCLs were used for IB with αIkB-α, αP-IkB-α, or αActin. (B) FACS analysis for H2O2 (probe for 2′,7′-dichlorofluorescin diacetate) or O^2− (probe for dihydroethidium). Quantitative analysis (upper) of mean fluorescence intensities of H2O2 and O^2− and NADPH oxidase activity (lower), (C) Culture supernatants (SN) were harvested and analyzed for cytokine ELISA. (D, E) LPS-primed BMDMs were treated with rNAMPT for 1 hour and then activated with ATP for 30 minutes. (D) ELISA for IL-1β and IL-18. (E) IB in SN with αIL-1β p17, αIL-18 p18, or αCasp1 p10 and IB of WCL with αPro-IL-1β, αPro-IL-18, αPro-Casp1, or αActin. […] Data come from three independent experiments that yielded similar results. (B-D) Data are provided as mean±SD of three experiments. Significance difference compared to LPS+PBS (*p<0.05; **p<0.01; ***p<0.001);
(§2) FIG. 5 illustrates results confirming an effect of TAT-NAMPT or NAMPT peptide on inflammation. Specifically, (A) BMDMs were stimulated with LPS (100 ng/ml) for 18 hours and pretreated with rNAMPT for 1 hour. Culture supernatants were collected and analyzed for cytokine ELISA. (B) LPS-primed BMDMs were treated with rNAMPT for 1 hour and then activated with nigericin for 30 minutes and DSS for 24 hours. ELISA for IL-1B and IL-18. […] The shown data are the mean±SD of three experiments. Significant difference comparing LPS+PBS (*p<0.05; **p<0.01; ***p<0.001);
Primary bone marrow-derived macrophages (BMDMs) were harvested from mice and cultured in DMEM in the presence of M-CSF (R&D Systems, 416-ML) for 3 to 5 days. HEK293T cells (ATCC-11268; American Type Culture Collection) were cultured in DMEM (Gibco) containing 10% FBS (Gibco), nonessential amino acids, sodium pyruvate, streptomycin (100 μg/mL) and penicillin G (100 IU/mL).
Polypeptides were separated by SDS-polyacrylamide gel electrophoresis and then transferred to a PVDF membrane for immunoblotting (IB) (Bio-Rad, Hercules, CA, USA). For immunodetection, specific antibodies were required, and Chemiluminescence (ECL; Millipore, MA, USA) was used to visualize an antibody bound to a target. In addition, a Vilber chemiluminescence analyzer was used to detect the antibody (Fusion SL3; Vilber Lourmat, Colégien, France).
Flow cytometry was used to quantify intracellular ROS levels. The cells were cultured in a serum-free medium and stained with 2 μM dihydroethidium (DHE for O^2−; Calbiochem) or 1 μM 2′,7′-dichlorodihydrofluorescein diacetate (H2DCFDA for H2O2; Calbiochem) as a redox-sensitive dye. mAbs were incubated at 4° C. for 20 to 30 minutes to determine cell surface protein expression, and cells were fixed using a Cytofix/Cytoperm Solution (BD Biosciences), and in a specific case, mAb incubation was performed to detect intracellular proteins. The used mAb clones were the following: ITGA6 (GoH3, BD Pharmingen™) and ITGB1 (HMβ1-1, BD Pharmingen™). The cells were washed completely and quickly with pulse spinning before being analyzed in a FACS Calibur (BD Biosciences, San Jose, CA, USA). CellQuest software (BD Biosciences) was used to visualize the data, and FlowJo software was used to analyze the data (Tree Star, Ash-land, OR, USA).
TNF-α, IL-6, IL-1β and IL-18 levels were measured in cell culture supernatants and mouse serum using the BD OptEIA ELISA system (BD Pharmingen). All experiments were performed according to the manufacturer's protocol.
To determine the effect of NAMPT peptides related to signal 1 for the NLRP3 inflammasome in macrophages, LPS-treated BMDMs were exposed to different concentrations of NAMPT peptides (aa 57-65, aa 52-56, or aa 52-65). […] Thus, the TAT-NAMPT peptides were less likely to inhibit the interaction of eNAMPT with TLR4 or CYBB.

[2] = test system: NLRP3 inflammasome signal 2; assay: NLRP3 inflammasome signal 2 in LPS-primed BMDMs activated with ATP, nigericin or DSS (ELISA, IB); assay type: cell-based, mice
Description: as §1, §2
Primary bone marrow-derived macrophages (BMDMs) were harvested from mice and cultured in DMEM in the presence of M-CSF (R&D Systems, 416-ML) for 3 to 5 days. […]
TNF-α, IL-6, IL-1β and IL-18 levels were measured in cell culture supernatants and mouse serum using the BD OptEIA ELISA system (BD Pharmingen). […]

TLR4 = TLR4 (Homo sapiens, UniProt O00206); assay: Fluorescence binding titration of labeled TLR4 with unlabeled NAMPT; conditions: fluorescently labeled TLR4 titrated with unlabeled NAMPT, curve fit; read-out: Kd of NAMPT-TLR4 interaction
Sequence of TLR4 (O00206 24-839, species assumed): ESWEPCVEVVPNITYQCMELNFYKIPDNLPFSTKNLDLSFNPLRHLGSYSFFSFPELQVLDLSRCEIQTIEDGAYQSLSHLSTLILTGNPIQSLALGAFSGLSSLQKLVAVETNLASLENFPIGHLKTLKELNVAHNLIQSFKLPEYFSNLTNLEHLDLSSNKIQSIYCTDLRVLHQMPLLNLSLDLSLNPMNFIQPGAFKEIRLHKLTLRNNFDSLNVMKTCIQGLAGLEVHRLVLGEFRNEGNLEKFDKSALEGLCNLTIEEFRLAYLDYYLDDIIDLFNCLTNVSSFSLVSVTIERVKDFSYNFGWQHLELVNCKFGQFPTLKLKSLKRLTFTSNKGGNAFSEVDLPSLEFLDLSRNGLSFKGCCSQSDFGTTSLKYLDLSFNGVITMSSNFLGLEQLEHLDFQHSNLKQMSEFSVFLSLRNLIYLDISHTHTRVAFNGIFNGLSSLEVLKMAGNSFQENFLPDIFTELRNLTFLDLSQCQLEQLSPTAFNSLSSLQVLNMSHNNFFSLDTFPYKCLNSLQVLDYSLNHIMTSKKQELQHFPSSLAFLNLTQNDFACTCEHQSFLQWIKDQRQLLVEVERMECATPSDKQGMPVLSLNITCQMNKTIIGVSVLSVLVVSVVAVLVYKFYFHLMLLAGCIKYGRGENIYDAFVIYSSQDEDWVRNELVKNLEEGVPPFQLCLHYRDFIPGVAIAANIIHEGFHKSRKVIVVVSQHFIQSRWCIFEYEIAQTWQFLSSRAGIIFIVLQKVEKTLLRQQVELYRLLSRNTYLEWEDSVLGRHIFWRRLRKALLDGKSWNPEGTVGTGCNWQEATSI

CYBB = molecular target: T1, CYBB (Homo sapiens, UniProt P04839); assay: Fluorescence binding titration of labeled CYBB with unlabeled NAMPT; conditions: fluorescently labeled CYBB titrated with unlabeled NAMPT, curve fit; read-out: Kd of NAMPT-CYBB interaction
T1 sequence (P04839 1-570): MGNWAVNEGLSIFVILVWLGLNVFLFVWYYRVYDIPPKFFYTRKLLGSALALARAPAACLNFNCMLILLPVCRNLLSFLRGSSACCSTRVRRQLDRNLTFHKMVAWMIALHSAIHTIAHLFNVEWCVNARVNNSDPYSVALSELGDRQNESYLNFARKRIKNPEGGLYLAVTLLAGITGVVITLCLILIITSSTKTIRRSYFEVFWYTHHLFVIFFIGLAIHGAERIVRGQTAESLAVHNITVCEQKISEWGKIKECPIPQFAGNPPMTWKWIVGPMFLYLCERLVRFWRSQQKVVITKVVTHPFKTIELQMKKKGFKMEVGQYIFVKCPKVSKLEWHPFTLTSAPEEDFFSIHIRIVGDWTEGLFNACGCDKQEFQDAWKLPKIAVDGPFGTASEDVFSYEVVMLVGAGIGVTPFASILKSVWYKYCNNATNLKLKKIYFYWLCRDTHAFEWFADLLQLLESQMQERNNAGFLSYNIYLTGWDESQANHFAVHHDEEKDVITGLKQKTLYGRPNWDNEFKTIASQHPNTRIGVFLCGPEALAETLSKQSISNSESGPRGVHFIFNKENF

NAMPT-TLR4 binding = assay: Co-immunoprecipitation of Myc-NAMPT with Flag-TLR4 in 293T cells treated with TAT-NAMPT peptides; assay type: cell-based; conditions: Myc-NAMPT and Flag-TLR4, peptide 6 hours, 5 μM or 1, 5, 10 μM
Description: (§3) FIG. 3 illustrates experimental design and results for identifying an essential region of NAMPT for binding to TLR4 and CYBB. Specifically, (A) Schematic diagram (upper) of the structures of NAMPT and TLR4. 293T cells were transfected with GST-NAMPT or its mutants and Flag-TLR4. GST pulldown was performed with 293T cells and then IB was performed using αFlag. WCLs were used for IB using αGST, αFlag, or αActin (lower, left in A). 293T cells were transfected with Flag-TLR4 or its mutants and Myc-NAMPT. The 293T cells were used for IP with αMyc, followed by IB with αFlag. WCLs were used for IB using αMyc, αFlag or αActin (lower, right in A). (B) 293T cells were transfected with Myc-NAMPT and Flag-TLR4 and treated with NAMPT peptide or its mutants for 6 hours (5 μM, left; 1, 5, 10 μM, right). The 293T cells were used for IP with αFlag, followed by IB with αMyc. WCLs were used for IB using αMyc, αFlag, or αActin. (C) Schematic diagram (upper) of the structures of CYBB. 293T cells were transfected with GST-NAMPT or its mutants and V5-CYBB (lower, left in C). The 293T cells were transfected with GST-CYBB or its mutants and Myc-NAMPT (lower, right in C). The 293T cells were subjected to GST pull-down, followed by IB with αV5 or αMyc. WCLs were used for IB using αGST, αMyc, a V5 or αActin. […]

NAMPT-CYBB binding = molecular target: T2, NAMPT-CYBB binding (Homo sapiens, UniProt P04839); assay: Co-immunoprecipitation of Myc-NAMPT with V5-CYBB in 293T cells treated with TAT-NAMPT peptides; assay type: cell-based; conditions: Myc-NAMPT and V5-CYBB, peptide 6 hours, 5 μM or 1, 5, 10 μM
T2 construct: The full-length (FL) CYBB and mutant plasmids were constructed as follows; expressed in transfected cells; host or cells: HEK293T (293T)
T2 sequence (P04839 1-570): T1 sequence (P04839 1-570)
Description: as §3

| Substance | activation of NF-κB [1] | production of cytokines (NF-κB-induced) [1] | generation of ROS [1] | also measured |
| --- | --- | --- | --- | --- |
| NAMPT peptides aa 52-56: peptide of amino acids 52 to 56 of NAMPT (SEQ ID NO: 1), binds CYBB (VKYEE; listed as Homo sapiens) | partially inhibited | partially inhibited | partially inhibited | – |
| NAMPT peptides aa 52-65: peptide of amino acids 52 to 65 of NAMPT (SEQ ID NO: 1), binds TLR4 and CYBB (VKYEETVFYGLQYI; listed as Homo sapiens) | – | markedly inhibited | markedly inhibited | action of eNAMPT on NLRP3 inflammasome signal 2 ([2]; FIG. 4D lower, FIG. 4E right): specifically inhibited the action of eNAMPT; ATP-induced caspase-1 cleavage ([2]; LPS-primed BMDMs, ATP 30 minutes): efficiently inhibited; maturation of IL-1β and IL-18 ([2]; LPS-primed BMDMs, ATP, nigericin or DSS stimulation): efficiently inhibited |
| NAMPT peptides aa 57-65: peptide of amino acids 57 to 65 of NAMPT (SEQ ID NO: 1), binds TLR4 (TVFYGLQYI; listed as Homo sapiens) | partially inhibited | partially inhibited | partially inhibited | – |
| Nicotinamide phosphoribosyl transferase [NAMPT] | – | – | – | Kd (TLR4): 0.219 µM; Kd (CYBB): 0.896 µM |
| TAT-NAMPT (aa 40-69) (GRKKRRQRRRPQREKKTENSKLRKVKYEETVFYGLQYILNKY) | – | – | – | binding of NAMPT to TLR4 (IP/IB) (NAMPT-TLR4 binding): reduced the binding of NAMPT to TLR4; binding of NAMPT to CYBB (IP/IB) (NAMPT-CYBB binding): bound to CYBB |
